Patent publication US7625892B2, “Pharmaceutical compositions for the treatment of diseases related to neurotrophines” (Mimetech S.r.l., priority 2002, dated 2009)
Read-outs that look alike come from different tables or passages of the source.

What was measured:
[1] = tested on: NGF specific surface receptor on PC12 cells; assay: Displacement of 125I-NGF binding to PC12 cells; details: 0.1 nM 125I-NGF
Protocol: The ability of selected compounds to displace the binding of NGF to specific surface receptor was evaluated through the classic binding techniques of iodinated ligand.
PC12 cells were detached from tissue flasks with PBS-EDTA, washed with HKR medium (10 mM Hepes, 125 mM NaCl, 4.8 mM KCl, 1.3 mM CaCl2, 1.2 mM MgSO4, 1.2 mM KH2PO4, 1 g/l glucose, 1 g/l BSA) and incubated in triplicate in HKR medium with 0.1 nM ^125I-NGF in the presence or absence of variable concentrations of the compounds to be assayed or of hrNGF as internal standard. Displacement curve was obtained by analyzing the resultant cell bound radioactivity in the presence of the compounds or of hrNGF with adequate software (Graphit 4).

VGF = assay: Induction of VGF production by PC12 cells (western blot); format: cell-based; details: FIG. 3
Protocol: The ability of 3-aza-bicyclo(3.2.1)octanes of formula (I) and their dimeric forms of formula (II) and (III) with substitution reported in Table 1-4 was tested also as ability to induce VGF production by PC12 cells. […] Cells were lysed in 0.25% NP-40 in PBS supplemented with 1 mM PMSF (phenyl-methyl) and 1 mM leupeptin and protein concentration was measured in each sample by Bradford assay. Equal amounts of proteins (30 μg) were loaded in 8% SDS-polyacrilamide gel, electrophoresed, blotted onto nitrocellulose membrane and stained with monoclonal antibodies anti-VGF followed by peroxidase-conjugated anti-mouse IgG. Reaction was visualized by Enhanced Chemiluminiscent Reagent (ECL, Amersham) following the manufacturer instruction.
VGF is induced by the selected compounds as well as by hrNGF.

Trk-A = biological target: T1, Trk-A (Rattus norvegicus, UniProt P35739); assay: Trk-A autophosphorylation in PC12 cells; format: cell-based; details: 10 μM compound, 30 min, FIG. 5
T1 construct: endogenous in cells; host or cells: PC12 cells
Protocol: To evaluate the ability of the compounds 3-aza-bicyclo(3.2.1)octanes of formula (I) and their dimeric forms of formula (II) and (III) reported in Table 14 to induce Trk-A autophosphorylation, PC12 cells were cultured in medium supplemented with 5% FBS for 48 hours, washed and equilibrated in serum-free medium for 2 hours. 2.5×10^6 cells were then stimulated with 10 μM of selected compounds for 30 min or with 10 nM hrNGF as positive control. Cells were then lysed with 0.5% Triton-X100 in PBS supplemented with protease inhibitors (PMSF, aprotinin, pepstatin, leupeptin) and phosphatase inhibitors. Protein concentrations in each sample was evaluated by Bradford assay and equal amounts (50 μg) of proteins were loaded onto SDS-polyacrilamide gel, electrophoresed and blotted onto nitrocellulose membrane. Membranes was stained with rabbit anti-(Tyr 490 and Tyr 674/675) phosphorylated Trk-A (Cell Signaling Technology) used at the final dilution of 1:1000. After washing, membranes were stained with HRP-conjugated anti-rabbit IgG and the reaction was visualised by using ECL reagents following manufacturing instructions.

T1 sequence (P35739 33-799): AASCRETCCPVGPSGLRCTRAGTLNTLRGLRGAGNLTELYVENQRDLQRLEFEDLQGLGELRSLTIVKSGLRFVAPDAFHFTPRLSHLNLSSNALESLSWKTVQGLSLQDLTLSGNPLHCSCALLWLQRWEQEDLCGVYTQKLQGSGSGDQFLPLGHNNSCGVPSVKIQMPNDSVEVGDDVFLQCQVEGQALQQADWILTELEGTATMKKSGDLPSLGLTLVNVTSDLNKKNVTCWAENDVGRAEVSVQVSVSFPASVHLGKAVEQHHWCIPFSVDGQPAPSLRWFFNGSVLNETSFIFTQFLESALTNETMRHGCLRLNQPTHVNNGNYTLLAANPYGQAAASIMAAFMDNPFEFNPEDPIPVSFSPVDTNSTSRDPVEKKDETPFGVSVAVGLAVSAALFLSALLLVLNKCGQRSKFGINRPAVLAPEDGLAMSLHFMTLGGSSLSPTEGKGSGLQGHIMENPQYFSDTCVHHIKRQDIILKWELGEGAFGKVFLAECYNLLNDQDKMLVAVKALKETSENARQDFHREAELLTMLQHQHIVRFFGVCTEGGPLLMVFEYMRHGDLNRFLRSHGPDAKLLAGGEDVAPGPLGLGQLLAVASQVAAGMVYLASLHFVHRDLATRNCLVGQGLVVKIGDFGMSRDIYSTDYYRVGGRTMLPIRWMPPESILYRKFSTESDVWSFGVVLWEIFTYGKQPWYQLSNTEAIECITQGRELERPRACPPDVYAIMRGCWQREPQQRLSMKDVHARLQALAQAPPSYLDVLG

| induction of Trk-A autophosphorylation (Trk-A) | Compound | Kd ([1]; FIG. 4a, read-out: Kd (displacement curve, compound used as competitor)) [nM] | VGF production induced (VGF; 10 μM compound) | Kd ([1]; FIG. 4b, read-out: Kd (displacement curve, hrNGF as competitor)) [nM] | VGF production induced (VGF; 10 nM hrNGF) |
| --- | --- | --- | --- | --- | --- |
| able to induce Trk-A autophosphorylation | COC(=O)C1OC2OC1C(=O)N(Cc1ccccc1)C2Cc1ccccc1 (centres unmarked) [Compound 9] | 165 | induced |  |  |
|  | hrNGF: human recombinant (hr)NGF used as internal standard |  |  | 0.114 | induced |
